Experimental data published in patent publication US9326513B2, “Fungicidal compositions” (Syngenta Participations AG, priority 2011, dated 2016).
Where two headings read alike, the source gives them in different places.

Experiments:
Format in all cases: cell-based
Septoria tritici = Septoria tritici (leaf blotch), PDB microtiter plate, visual after 72 hrs; details: single compound
[1] = system: Monographella nivalis (syn. Microdochium nivale, Fusarium nivale); assay: Monographella nivalis (snow mould, foot rot of cereals), PDB microtiter plate, visual after 72 hrs; details: applied alone; for inhibition at 0.015625 ppm: rate 0.015625 ppm
Botrytis cinerea = Botrytis cinerea (gray mould), PDB microtiter plate, visual after 72 hrs; details: for inhibition at 1.25 ppm: rate 1.25 ppm; for inhibition at 2.5 ppm: rate 2.5 ppm
[2] = system: Mycosphaerella arachidis (y. Cercospora arachidicola); assay: Mycosphaerella arachidis (brown leaf spot of groundnut), PDB microtiter plate, visual after 5-6 days; details: single compound
[3] = Monographella nivalis, 0.0625 ppm
[4] = Monographella nivalis, 0.125 ppm
[5] = Monographella nivalis, 0.25 ppm
[6] = Monographella nivalis, rate 0.03125 ppm
[7] = Monographella nivalis, rate 0.0625 ppm
[8] = Monographella nivalis, rate 0.125 ppm
[9] = Monographella nivalis, rate 0.25 ppm

C#CCOc1ccc(CCNC(=O)C(OCC#C)c2ccc(Cl)cc2)cc1OC (centres unmarked) [Mandipropamid]
70%: Activity (%) (Septoria tritici; 0.5 ppm)
0%: Activity (%) ([1]; rate 0.03125 ppm) | Activity (%) ([1]; rate 0.0625 ppm) | Activity (%) (Botrytis cinerea; alone, rate 5 ppm) | Activity (%) (Botrytis cinerea; alone, rate 10 ppm) | Activity (%) (Botrytis cinerea; alone, rate 20 ppm)

CCCC1COC(Cn2cncn2)(c2ccc(Cl)cc2Cl)O1 (centres unmarked) [Propiconazole]
50%: inhibition at 0.125 ppm (Septoria tritici; Zymoseptoria tritici, 0.125 ppm) | inhibition at 0.5 ppm (Botrytis cinerea; Botrytis cinerea, alone, rate 0.5 ppm) | inhibition at 0.5 ppm (Botrytis cinerea; Botrytis cinerea, single compound, rate 0.5 ppm)
20%: inhibition at 1 ppm ([1]; Monographella nivalis, 1 ppm)
0%: inhibition at 0.0625 ppm [1, 3] | inhibition at 0.125 ppm [1, 4] | inhibition at 0.25 ppm [1, 5] | inhibition at 0.5 ppm ([1]; Monographella nivalis, 0.5 ppm) | inhibition at 0.015625 ppm ([1]; Monographella nivalis) | inhibition at 0.03125 ppm [1, 6] | inhibition at 0.0625 ppm [1, 7] | inhibition at 0.125 ppm [1, 8] | inhibition at 0.25 ppm [1, 9] | inhibition at 0.0625 ppm (Botrytis cinerea; Botrytis cinerea, alone, rate 0.0625 ppm, read-out: Activity (%)) | inhibition at 0.125 ppm (Botrytis cinerea; Botrytis cinerea, alone, rate 0.125 ppm) | inhibition at 0.25 ppm (Botrytis cinerea; Botrytis cinerea, alone, rate 0.25 ppm) | inhibition at 0.25 ppm (Botrytis cinerea; Botrytis cinerea, single compound, rate 0.25 ppm)

CC(C)C1C2CCC1c1c(NC(=O)c3cn(C)nc3C(F)F)cccc12 (centres unmarked) [Isopyrazam]
20%: Activity (%) (Septoria tritici; 0.03125 ppm)
0%: Activity (%) (Septoria tritici; 0.015625 ppm)

CC(C)(C)[C@@H](O)[C@@H](Cc1ccc(Cl)cc1)n1cncn1 (racemic) [Paclobutrazol]
70%: inhibition at 5 ppm (Septoria tritici; Zymoseptoria tritici, 5 ppm) | inhibition at 10 ppm (Septoria tritici; Zymoseptoria tritici, 10 ppm) | inhibition at 5 ppm (Botrytis cinerea; Botrytis cinerea, single compound, rate 5 ppm, read-out: Activity (%))
0%: inhibition at 0.15625 ppm (Septoria tritici; Zymoseptoria tritici, 0.15625 ppm) | inhibition at 0.625 ppm (Septoria tritici; Zymoseptoria tritici, 0.625 ppm) | inhibition at 1.25 ppm (Septoria tritici; Zymoseptoria tritici, 1.25 ppm) | inhibition at 0.625 ppm ([1]; Monographella nivalis, 0.625 ppm) | inhibition at 1.25 ppm ([1]; Monographella nivalis, 1.25 ppm) | inhibition at 2.5 ppm ([1]; Monographella nivalis, 2.5 ppm) | inhibition at 5 ppm ([1]; Monographella nivalis, 5 ppm) | inhibition at 10 ppm ([1]; Monographella nivalis, 10 ppm) | inhibition at 0.15625 ppm ([1]; Monographella nivalis, rate 0.15625 ppm) | inhibition at 0.3125 ppm ([1]; Monographella nivalis, rate 0.3125 ppm) | inhibition at 0.625 ppm ([1]; Monographella nivalis, rate 0.625 ppm) | inhibition at 1.25 ppm ([1]; Monographella nivalis, rate 1.25 ppm) | inhibition at 0.625 ppm (Botrytis cinerea; Botrytis cinerea, alone, rate 0.625 ppm) | inhibition at 1.25 ppm (Botrytis cinerea; Botrytis cinerea, alone) | inhibition at 2.5 ppm (Botrytis cinerea; Botrytis cinerea, alone, read-out: Activity (%)) | inhibition at 1.25 ppm (Botrytis cinerea; Botrytis cinerea, single compound) | inhibition at 2.5 ppm (Botrytis cinerea; Botrytis cinerea, single compound, read-out: Activity (%))
20%: inhibition at 0.3125 ppm (Septoria tritici; Zymoseptoria tritici, 0.3125 ppm)
50%: Activity (%) (Septoria tritici; 5 ppm)

CO/C=C(/C(=O)OC)c1ccccc1COc1cccc(C(F)(F)F)n1 [Picoxystrobin]
70%: Activity (%) (Septoria tritici; 0.015625 ppm)
90%: Activity (%) (Septoria tritici; 0.03125 ppm)
50%: Activity (%) (Botrytis cinerea; alone, rate 0.25 ppm) | Activity (%) (Botrytis cinerea; alone, rate 0.5 ppm) | Activity (%) (Botrytis cinerea; alone, rate 1 ppm) | Activity (%) (Botrytis cinerea; alone, rate 2 ppm)

Cn1cc(C(=O)Nc2ccc(F)cc2-c2ccc(Cl)c(Cl)c2)c(C(F)F)n1 [Bixafen]
50%: Activity (%) ([2]; 0.03125 ppm)
20%: Activity (%) ([1]; 0.25 ppm)
70%: Activity (%) ([2]; 0.0625 ppm)

CC1(C)CCC(Cc2ccc(Cl)cc2)C1(O)Cn1cncn1 (centres unmarked) [Metconazole]
0%: inhibition at 0.03125 ppm (Septoria tritici; Zymoseptoria tritici, 0.03125 ppm) | inhibition at 0.0625 ppm [1, 3] | inhibition at 0.125 ppm [1, 4] | inhibition at 0.25 ppm [1, 5] | inhibition at 0.5 ppm ([1]; Monographella nivalis, 0.5 ppm) | inhibition at 0.015625 ppm ([1]; Monographella nivalis) | inhibition at 0.03125 ppm [1, 6] | inhibition at 0.0625 ppm [1, 7] | inhibition at 0.125 ppm [1, 8] | inhibition at 0.25 ppm [1, 9] | inhibition at 0.5 ppm ([1]; Monographella nivalis, rate 0.5 ppm) | inhibition at 0.015625 ppm (Botrytis cinerea; Botrytis cinerea, alone, rate 0.015625 ppm) | inhibition at 0.03125 ppm (Botrytis cinerea; Botrytis cinerea, alone, rate 0.03125 ppm, read-out: Activity (%))
50%: Activity (%) (Septoria tritici; 0.0625 ppm)
70%: inhibition at 0.0625 ppm (Septoria tritici; Zymoseptoria tritici, 0.0625 ppm)
20%: inhibition at 1 ppm ([1]; Monographella nivalis, 1 ppm) | inhibition at 1 ppm ([1]; Monographella nivalis, rate 1 ppm)

Cn1cc(C(=O)Nc2ccccc2-c2cc(F)c(F)c(F)c2)c(C(F)F)n1 [Fluxapyroxad]
70%: Activity (%) (Botrytis cinerea; alone, rate 0.125 ppm)
50%: Activity (%) (Botrytis cinerea; alone, rate 0.0625 ppm)
0%: Activity (%) (Septoria tritici; 0.015625 ppm) | Activity (%) (Septoria tritici; 0.03125 ppm)
20%: Activity (%) (Septoria tritici; 0.0625 ppm) | Activity (%) (Botrytis cinerea; alone, rate 0.015625 ppm)

Cc1nn(C)c(F)c1C(=O)Nc1ccccc1C(C)CC(C)C (centres unmarked) [Penflufen]
0%: Activity (%) (Septoria tritici; 0.125 ppm) | Activity (%) ([1]; 0.5 ppm) | Activity (%) ([1]; rate 0.5 ppm)
20%: Activity (%) (Septoria tritici; 0.25 ppm) | Activity (%) ([1]; 1 ppm) | Activity (%) ([1]; rate 1 ppm)
70%: Activity (%) (Septoria tritici; 0.5 ppm)
